Results published in patent US9346813B2, “Substituted pyrrolo[2,3-d]pyrimindines as CDK9 kinase inhibitors” (AbbVie Inc., priority 2014, dated 2016).

Assays:
CDK9/Cyclin T1 = biological target: T1, CDK9/Cyclin T1 (Homo sapiens, UniProt P50750); experiment: CDK9 enzyme protocol (LANCE ULight TR-FRET kinase assay); assay type: biochemical; details: 4 nM CDK9/Cyclin T1, 1000 μM ATP, 100 nM U-light MBP peptide, 30 minutes
T1 construct: purchased Carna Biosciences 04-110
Method: CDK9 enzyme activities were measured using LANCE ULight TR-FRET kinase assay reagents (PerkinElmer, Waltham, Mass.). Compounds were directly added in 100% DMSO to white low volume assay plates (Perkin Elmer Proxiplate 6008289) using a Labcyte Echo acoustic dispenser. Assay reagents in serine/threonine kinase assay buffer containing 20 mM HEPES, 10 mM MgCl2, 100 mM Na3VO4, and 0.0075% Triton X-100. were added for final reaction mixture concentrations of 1000 μM ATP, 100 nM U-light MBP peptide (Perkin Elmer TRF0109M) and reaction initiated with 4 nM CDK9/Cyclin T1 (Carna Biosciences 04-110). The kinase reaction was carried out for 30 minutes before addition of stopping buffer to a final of 20 mM EDTA and 0.5 nM of LANCE Ultra Europium anti-phospho-MBP antibody (PerkinElmer TRF0201M) in LANCE detection buffer (PerkinElmer CR97-100). The reaction was equilibrated for 1 hour and the signal read in the Perkin Elmer Envision in TR-FRET mode (excitation at 320 nm and emission at 615/665 nm).

H929 cells = experiment: Cell viability assay in H929 cells (Cell TiterGlo); assay type: cell-based; details: Homo sapiens, NCI-H929, 24 hours at 37° C.
Method: Cell viability assays were performed using A431 or H929 cells. A431 cells were seeded in 96-well plates at 10,000 cells/well, and after overnight incubation, treated with compounds at 2-times the final concentration to result in a dose response of 3-fold dilutions from 10 μM to 0.0005 μM (50 μL/well, 0.1% final DMSO concentration). H929 cells were seeded in 96-well plates at 10,000 cells/well and treated immediately with compounds as described above. After 24 hours at 37° C., cell viability was measured using Cell TiterGlo reagent (Promega) with a luminescence reader. Alternately, cell viability assays were performed in 384-well format. A431 cells were seeded in 384-well plates at 2500 cells/well and, after overnight incubation, treated with compounds in a dose response of 3-fold dilutions from 10 μM to 0.0005 μM (25 nL/well, 0.1% final DMSO concentration). For the H929 viability assay, 25 nL/well of the compounds was dispensed into 384-well plates in a dose response as described above and cells were immediately seeded in 384-well plates at 2500 cells/well. After 24 hours at 37° C., cell viability was measured using Cell TiterGlo reagent (Promega) with a luminescence reader.

T1 sequence (P50750 whole entry): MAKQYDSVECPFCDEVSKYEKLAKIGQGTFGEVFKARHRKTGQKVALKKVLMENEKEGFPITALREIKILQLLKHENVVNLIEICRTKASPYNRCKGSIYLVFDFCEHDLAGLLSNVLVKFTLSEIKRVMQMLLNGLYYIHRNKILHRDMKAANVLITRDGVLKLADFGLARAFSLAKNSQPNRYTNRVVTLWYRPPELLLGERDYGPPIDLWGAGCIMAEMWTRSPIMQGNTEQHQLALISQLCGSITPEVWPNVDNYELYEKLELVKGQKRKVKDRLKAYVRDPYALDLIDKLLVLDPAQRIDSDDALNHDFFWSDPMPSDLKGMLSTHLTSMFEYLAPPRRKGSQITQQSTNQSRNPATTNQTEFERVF
T1 sequence (O60563 whole entry partner): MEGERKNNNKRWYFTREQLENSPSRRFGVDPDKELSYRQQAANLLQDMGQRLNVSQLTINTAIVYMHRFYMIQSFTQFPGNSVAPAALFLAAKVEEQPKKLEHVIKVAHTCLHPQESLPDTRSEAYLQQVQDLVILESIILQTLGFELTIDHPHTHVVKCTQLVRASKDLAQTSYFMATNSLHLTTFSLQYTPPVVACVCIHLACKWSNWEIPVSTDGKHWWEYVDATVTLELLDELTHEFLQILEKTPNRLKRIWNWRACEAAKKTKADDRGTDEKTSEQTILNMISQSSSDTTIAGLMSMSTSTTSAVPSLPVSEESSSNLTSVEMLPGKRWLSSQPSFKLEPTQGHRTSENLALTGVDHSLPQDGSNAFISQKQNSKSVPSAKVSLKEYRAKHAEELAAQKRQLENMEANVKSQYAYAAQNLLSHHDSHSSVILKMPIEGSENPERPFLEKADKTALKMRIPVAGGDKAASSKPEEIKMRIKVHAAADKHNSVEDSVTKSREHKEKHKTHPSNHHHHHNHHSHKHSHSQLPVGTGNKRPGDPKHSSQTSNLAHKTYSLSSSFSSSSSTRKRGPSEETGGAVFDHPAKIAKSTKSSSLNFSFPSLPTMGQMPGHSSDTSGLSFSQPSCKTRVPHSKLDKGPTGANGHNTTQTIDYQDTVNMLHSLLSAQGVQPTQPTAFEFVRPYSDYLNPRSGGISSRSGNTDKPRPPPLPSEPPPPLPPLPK

Compound	IC50 (CDK9/Cyclin T1) [nM]	EC50 (H929 cells) [nM]
COc1ccc(F)cc1-c1ncnc2[nH]c(C3=CCN(Cc4ccc(N)cc4)CC3)cc12 [Example 70, 4-({4-[4-(5-fluoro-2-methoxyphenyl)-7H-pyrrolo[2,3-d]pyrimidin-6-yl]-3,6-dihydropyridin-1(2H)-yl}methyl)aniline]	91	160
COc1ccc(F)cc1-c1ncnc2[nH]c(C3=CCN(CC4CCNCC4)CC3)cc12 [Example 39, 4-(5-fluoro-2-methoxyphenyl)-6-[1-(piperidin-4-ylmethyl)-1,2,3,6-tetrahydropyridin-4-yl]-7H-pyrrolo[2,3-d]pyrimidine]	210	4740
COc1ccc(F)cc1-c1ncnc2[nH]c(C3=CCN(Cc4ccc(C#N)cc4)CC3)cc12 [Example 22, 4-({4-[4-(5-fluoro-2-methoxyphenyl)-7H-pyrrolo[2,3-d]pyrimidin-6-yl]-3,6-dihydropyridin-1(2H)-yl}methyl)benzonitrile]	240	1100
COc1ccc(F)cc1-c1ncnc2[nH]c(C3=CCN(Cc4ccncc4)CC3)cc12 [Example 27, 4-(5-fluoro-2-methoxyphenyl)-6-[1-(pyridin-4-ylmethyl)-1,2,3,6-tetrahydropyridin-4-yl]-7H-pyrrolo[2,3-d]pyrimidine]	220	720
COc1ccc(F)cc1-c1ncnc2[nH]c(C3=CCN(Cc4cccc(C#N)c4)CC3)cc12 [Example 23, 3-({4-[4-(5-fluoro-2-methoxyphenyl)-7H-pyrrolo[2,3-d]pyrimidin-6-yl]-3,6-dihydropyridin-1(2H)-yl}methyl)benzonitrile]	270	420
COc1ccc(F)cc1-c1ncnc2[nH]c(C3=CCN(Cc4ccccc4)CC3)cc12 [Example 21, 6-(1-benzyl-1,2,3,6-tetrahydropyridin-4-yl)-4-(5-fluoro-2-methoxyphenyl)-7H-pyrrolo[2,3-d]pyrimidine]	35	440
COc1ccc(F)cc1-c1ncnc2[nH]c(C3=CCN([C@H]4CC[C@H](CC(=O)O)CC4)CC3)cc12 [Example 87, (trans-4-{4-[4-(5-fluoro-2-methoxyphenyl)-7H-pyrrolo[2,3-d]pyrimidin-6-yl]-3,6-dihydropyridin-1(2H)-yl}cyclohexyl)acetic acid]	300	4100
COc1ccc(F)cc1-c1ncnc2[nH]c(C3=CCN(Cc4cccnc4)CC3)cc12 [Example 34, 4-(5-fluoro-2-methoxyphenyl)-6-[1-(pyridin-3-ylmethyl)-1,2,3,6-tetrahydropyridin-4-yl]-7H-pyrrolo[2,3-d]pyrimidine]	170	630
COc1ccc(F)cc1-c1ncnc2[nH]c(C3=CCN(C4CCC(C(=O)O)CC4)CC3)cc12 (centres unmarked) [Example 86, 4-{4-[4-(5-fluoro-2-methoxyphenyl)-7H-pyrrolo[2,3-d]pyrimidin-6-yl]-3,6-dihydropyridin-1(2H)-yl}cyclohexanecarboxylic acid]	400	3600
COc1ccc(F)cc1-c1ncnc2[nH]c(C3=CCN(C)CC3)cc12 [Example 4, 4-(5-fluoro-2-methoxyphenyl)-6-(1-methyl-1,2,3,6-tetrahydropyridin-4-yl)-7H-pyrrolo[2,3-d]pyrimidine]	23	350

Other lines, results leading:

IC50 (CDK9/Cyclin T1) [nM]	EC50 (H929 cells) [nM]	Compound
88	930	COc1ccc(F)cc1-c1ncnc2[nH]c(C3=CCN(C(=O)C4CCN4)CC3)cc12 (centres unmarked) [Example 12, azetidin-2-yl{4-[4-(5-fluoro-2-methoxyphenyl)-7H-pyrrolo[2,3-d]pyrimidin-6-yl]-3,6-dihydropyridin-1(2H)-yl}methanone]
110	780	COC(=O)c1ccc(CN2CC=C(c3cc4c(-c5cc(F)ccc5OC)ncnc4[nH]3)CC2)cc1 [Example 71, methyl 4-({4-[4-(5-fluoro-2-methoxyphenyl)-7H-pyrrolo[2,3-d]pyrimidin-6-yl]-3,6-dihydropyridin-1(2H)-yl}methyl)benzoate]
43	376	COc1ccc(F)cc1-c1ncnc2[nH]c(C3=CCN(S(=O)(=O)C4CCS(=O)(=O)C4)CC3)cc12 (centres unmarked) [Example 38, 6-{1-[(1,1-dioxidotetrahydrothiophen-3-yl)sulfonyl]-1,2,3,6-tetrahydropyridin-4-yl}-4-(5-fluoro-2-methoxyphenyl)-7H-pyrrolo[2,3-d]pyrimidine]
290	6700	COc1ccc(F)cc1-c1ncnc2[nH]c(C3=CCC(C(=O)O)CC3)cc12 (centres unmarked) [Example 79, 4-[4-(5-fluoro-2-methoxyphenyl)-7H-pyrrolo[2,3-d]pyrimidin-6-yl]cyclohex-3-ene-1-carboxylic acid]
65	1700	COc1ccc(F)cc1-c1ncnc2[nH]c(C3=CCN(C(=O)C4CCC(=O)NC4)CC3)cc12 (centres unmarked) [Example 14, 5-({4-[4-(5-fluoro-2-methoxyphenyl)-7H-pyrrolo[2,3-d]pyrimidin-6-yl]-3,6-dihydropyridin-1(2H)-yl}carbonyl)piperidin-2-one]
200	420	CCOc1ccc(F)cc1-c1ncnc2[nH]c(C3=CCN(Cc4ccc(NC(C)=O)cc4)CC3)cc12 [Example 68, N-[4-({4-[4-(2-ethoxy-5-fluorophenyl)-7H-pyrrolo[2,3-d]pyrimidin-6-yl]-3,6-dihydropyridin-1(2H)-yl}methyl)phenyl]acetamide]
750	6800	COc1ccc(F)cc1-c1ncnc2[nH]c(C3=CCC(N[C@H](C(=O)O)C(C)C)CC3)cc12 (stereo partly drawn) [Example 78, N-{4-[4-(5-fluoro-2-methoxyphenyl)-7H-pyrrolo[2,3-d]pyrimidin-6-yl]cyclohex-3-en-1-yl}-L-valine]
150	669	COc1ccc(F)cc1-c1ncnc2[nH]c(C3=CCN(S(=O)(=O)C(F)(F)F)CC3)cc12 [Example 40, 4-(5-fluoro-2-methoxyphenyl)-6-{1-[(trifluoromethyl)sulfonyl]-1,2,3,6-tetrahydropyridin-4-yl}-7H-pyrrolo[2,3-d]pyrimidine]
71	780	CCOC(=O)NS(=O)(=O)N1CC=C(c2cc3c(-c4cc(F)ccc4OC)ncnc3[nH]2)CC1 [Example 82, ethyl ({4-[4-(5-fluoro-2-methoxyphenyl)-7H-pyrrolo[2,3-d]pyrimidin-6-yl]-3,6-dihydropyridin-1(2H)-yl}sulfonyl)carbamate]
220	1000	COc1ccc(F)cc1-c1ncnc2[nH]c(C3=CCN(Cc4ccnc(C(F)(F)F)c4)CC3)cc12 [Example 28, 4-(5-fluoro-2-methoxyphenyl)-6-(1-{[2-(trifluoromethyl)pyridin-4-yl]methyl}-1,2,3,6-tetrahydropyridin-4-yl)-7H-pyrrolo[2,3-d]pyrimidine]
20	380	COc1ccc(F)cc1-c1ncnc2[nH]c(C3=CCN(S(C)(=O)=O)CC3)cc12 [Example 5, 4-(5-fluoro-2-methoxyphenyl)-6-[1-(methylsulfonyl)-1,2,3,6-tetrahydropyridin-4-yl]-7H-pyrrolo[2,3-d]pyrimidine]
260	3600	CS(=O)(=O)N1CC=C(c2cc3c(-c4cc(NCC5CCCO5)ccc4F)ncnc3[nH]2)CC1 (centres unmarked) [Example 32, 4-fluoro-3-{6-[1-(methylsulfonyl)-1,2,3,6-tetrahydropyridin-4-yl]-7H-pyrrolo[2,3-d]pyrimidin-4-yl}-N-(tetrahydrofuran-2-ylmethyl)aniline]
170	1700	COc1ccc(F)cc1-c1ncnc2[nH]c(C3=CCC(N[C@@H](CC(C)C)C(=O)O)CC3)cc12 (stereo partly drawn) [Example 85, N-{4-[4-(5-fluoro-2-methoxyphenyl)-7H-pyrrolo[2,3-d]pyrimidin-6-yl]cyclohex-3-en-1-yl}-L-leucine]
440	6400	COc1ccc(F)cc1-c1ncnc2[nH]c(C3=CCC(N[C@@H](C(=O)O)C(C)C)CC3)cc12 (stereo partly drawn) [Example 84, N-{4-[4-(5-fluoro-2-methoxyphenyl)-7H-pyrrolo[2,3-d]pyrimidin-6-yl]cyclohex-3-en-1-yl}-D-valine]
76	58	COc1ccc(F)cc1-c1ncnc2[nH]c(C3=CCN(Cc4ccc(NC(C)=O)cc4)CC3)cc12 [Example 25, N-[4-({4-[4-(5-fluoro-2-methoxyphenyl)-7H-pyrrolo[2,3-d]pyrimidin-6-yl]-3,6-dihydropyridin-1(2H)-yl}methyl)phenyl]acetamide]
